Results on 24 molecules are retold here after US10189841B2, “Purinones as ubiquitin-specific protease 1 inhibitors” (Forma Therapeutics, Inc., priority 2015, dated 2019).

The assay has as its target USP1 (construct USP1 (I-785, GG670, 671AA)/UAF1 (I-677)-Flag) (Homo sapiens (Human), UniProt O94782, G670A/G671A). The experiment in a line: Ubiquitin-Rhodamine 110 assay for USP1 activity. The conditions noted are these: USP1/UAF1 25 pM, Ub-Rh110 25 nM, 30 min preincubation. The format is biochemical. The procedure: Example 53: Ubitquin-Rhodamine 110 Assay for USP1 Activity
The HTS assay was performed in a final volume of 20 μL in assay buffer containing 20 mM Tris-HCl (pH 8.0, (1M Tris-HCl, pH 8.0 solution; Corning 46-031-CM)), 2 mM CaCl2 (1M Calcium Chloride solution; Sigma #21114) 1 mM GSH (L-Glutathione reduced; Sigma #G4251), 0.01% Prionex ([…] filtered, Sigma #G-0411), and 0.01% Triton X-100. Stock compound solutions were stored at −20° C. as 10 mM in DMSO. Up to 1 month prior to the assay, 2 mM test compounds were pre-dispensed into assay plates (Black, low volume; Corning #3820) and frozen at −20° C. Prestamped assay plates were allowed to come to room temperature on the day of the assay. For the screen, 100 nL of 2 mM was pre-dispensed for a final screening concentration of […] (DMSO(fc)=0.5%). The final concentration of the enzyme (USP1, construct USP1 (I-785, GG670, 671AA)/UAF1 (I-677)-Flag; Viva) in the assay was 100 pM. Final substrate (Ub-Rh110; Ubiquitin-Rhodamine 110, R&D Systems #U-555) concentration was 25 nM with [Ub-Rh110]<<Km. […] Plates were incubated stacked for 45 minutes at room temperature before fluorescence was read on the Envision (Excitation at 485 nm and Emission at 535 nm; Perkin Elmer) or on the PheraSTAR (Excitation at 485 nm and Emission at 535 nm; BMG Labtech)
Nanoliter quantities of either an 8-point or 10-point, 3-fold serial dilution in DMSO was pre-dispensed into assay plates (Perkin Elmer, ProxiPlate-384 F Plus, #6008269) for a final test concentration range of either 25 μM to 11 nM or 25 μM to 1.3 nM, respectively. The final concentration of the enzyme (USP1, construct USP1 (I-785, GG670, 671AA)/UAF1 (I-677)-Flag; Viva) in the assay was 25 pM. Final substrate (Ub-Rh110; Ubiquitin-Rhodamine 110, R&D Systems #U-555) concentration was 25 nM with [Ub-Rh110]<<Km. […] Plates were incubated stacked for 20 minutes at room temperature before 5 μL of stop solution (final concentration of 10 mM citric acid in assay buffer (Sigma, #251275-500G)). Fluorescence was read on the Envision (Excitation at 485 nm and Emission at 535 nm; Perkin Elmer) or on the PheraSTAR (Excitation at 485 nm and Emission at 535 nm; BMG Labtech).
For both assay formats data were reported as percent inhibition compared with control wells based on the following equation: % inh=[1−((FLU−AveLow)/(AveHigh−AveLow))]×100 where FLU=measured Fluorescence, AveLow=average Fluorescence of no enzyme control (n=16), and AveHigh=average Fluorescence of DMSO control (n=16). IC50 values were determined by curve fitting of the standard 4 parameter logistic fitting algorithm included in the Activity Base software package: IDBS XE Designer Model205. Data is fitted using the Levenburg Marquardt algorithm.

USP1 (construct USP1 (I-785, GG670, 671AA)/UAF1 (I-677)-Flag), sequence (O94782 whole entry G670A/G671A): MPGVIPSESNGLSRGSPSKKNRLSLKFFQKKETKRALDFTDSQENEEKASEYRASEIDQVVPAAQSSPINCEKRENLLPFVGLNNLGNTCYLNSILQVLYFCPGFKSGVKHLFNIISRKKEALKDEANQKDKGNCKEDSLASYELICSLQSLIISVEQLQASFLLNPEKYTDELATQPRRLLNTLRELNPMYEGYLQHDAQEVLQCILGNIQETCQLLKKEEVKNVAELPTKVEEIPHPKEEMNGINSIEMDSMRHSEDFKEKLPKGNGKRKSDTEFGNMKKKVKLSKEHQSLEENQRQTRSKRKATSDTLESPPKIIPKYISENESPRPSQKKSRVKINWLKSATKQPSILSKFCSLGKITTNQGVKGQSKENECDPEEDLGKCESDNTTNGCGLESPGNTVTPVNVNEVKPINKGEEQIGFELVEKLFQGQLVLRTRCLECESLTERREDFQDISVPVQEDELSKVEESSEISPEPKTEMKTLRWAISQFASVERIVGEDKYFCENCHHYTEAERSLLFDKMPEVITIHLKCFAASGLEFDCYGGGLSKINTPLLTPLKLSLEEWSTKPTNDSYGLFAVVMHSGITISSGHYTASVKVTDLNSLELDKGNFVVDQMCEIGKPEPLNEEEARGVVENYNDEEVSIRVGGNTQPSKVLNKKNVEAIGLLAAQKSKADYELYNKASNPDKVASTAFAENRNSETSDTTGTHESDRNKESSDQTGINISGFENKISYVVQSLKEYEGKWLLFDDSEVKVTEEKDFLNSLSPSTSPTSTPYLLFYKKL
USP1 (construct USP1 (I-785, GG670, 671AA)/UAF1 (I-677)-Flag), sequence (Q8TAF3 whole entry partner): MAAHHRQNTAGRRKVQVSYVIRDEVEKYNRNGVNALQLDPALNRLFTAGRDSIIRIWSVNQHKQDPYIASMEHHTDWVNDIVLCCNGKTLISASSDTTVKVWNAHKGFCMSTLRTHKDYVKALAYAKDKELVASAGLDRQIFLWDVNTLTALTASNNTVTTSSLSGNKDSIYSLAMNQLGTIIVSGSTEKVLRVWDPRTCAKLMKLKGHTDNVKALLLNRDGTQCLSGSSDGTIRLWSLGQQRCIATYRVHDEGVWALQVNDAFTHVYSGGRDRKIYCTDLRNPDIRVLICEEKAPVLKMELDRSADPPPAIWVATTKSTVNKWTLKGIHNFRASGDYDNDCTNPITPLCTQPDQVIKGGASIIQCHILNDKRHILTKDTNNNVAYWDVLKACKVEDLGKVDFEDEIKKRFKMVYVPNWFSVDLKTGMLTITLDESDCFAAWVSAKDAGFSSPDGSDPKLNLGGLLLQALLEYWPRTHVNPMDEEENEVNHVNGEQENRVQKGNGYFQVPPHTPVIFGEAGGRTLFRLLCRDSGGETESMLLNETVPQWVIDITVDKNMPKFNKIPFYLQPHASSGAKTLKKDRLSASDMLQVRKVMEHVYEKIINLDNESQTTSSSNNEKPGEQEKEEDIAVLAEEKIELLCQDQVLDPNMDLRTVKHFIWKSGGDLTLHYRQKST

The IC50 is the concentration that inhibits the measured activity by half. High values mean a need for much substance, low ones inhibition by little substance. `CC(C)c1ccccc1-c1ncc2[nH]c(=O)n(Cc3ccc(C(=O)N(C)CCO)cc3)c2n1` [Compound I-376, N-(2-hydroxyethyl)-4-((2-(2-isopropylphenyl)-8-oxo-7,8-dihydro-9H-purin-9-yl)methyl)-N-methylbenzamide] registered an IC50 of 200 to 2000 nM.

With `Cc1nc(S(=O)(=O)Nc2ccc(Cn3c(=O)n(C)c4cnc(-c5ccccc5C(C)C)nc43)cc2)cn1C` [Compound I-455, N-(4-((2-(2-isopropylphenyl)-7-methyl-8-oxo-7,8-dihydro-9H-purin-9-yl)methyl)phenyl)-1,2-dimethyl-lH-imidazole-4-sulfonamide], the IC50 is over 2000 nM.

Molecule `O=c1[nH]c2cnc(-c3ccccc3OCC3CC3)nc2n1Cc1ccc(-n2cccn2)cc1` [Compound I-23, 9-(4-(1H-pyrazol-1-yl)benzyl)-2-(2-(cyclopropylmethoxy)phenyl)-7,9-dihydro-8H-purin-8-one] came in with an IC50 of 50 to 200 nM.

Consider `COCc1cn(-c2ccc(Cn3c(=O)[nH]c4cnc(-c5ccccc5C(C)C)nc43)cc2)nn1` [Compound I-344, 2-(2-isopropylphenyl)-9-(4-(4-(methoxymethyl)-1H-1,2,3-triazol-1-yl)benzyl)-7,9-dihydro-8H-purin-8-one], for which the 50% inhibitory concentration (IC50) was in the range of 200 to 2000 nM.

Consider `CCCOc1ccccc1-c1ncc2[nH]c(=O)n(Cc3ccc(-n4cccn4)cc3)c2n1` [Compound I-21, 9-(4-(1H-pyrazol-1-yl)benzyl)-2-(2-propoxyphenyl)-7,9-dihydro-8H-purin-8-one], for which the 50% inhibitory concentration (IC50) lay within 50 to 200 nM.

`CC(C)c1ccccc1-c1ncc2[nH]c(=O)n(Cc3ccc(C(=O)N4CCC[C@@H]4C)cc3)c2n1` [Compound I-395, (S)-2-(2-isopropylphenyl)-9-(4-(2-methylpyrrolidine-1-carbonyl)benzyl)-7,9-dihydro-8H-purin-8-one] yielded a 50% inhibitory concentration (IC50) of under 50 nM.

Turning to `CC(C)c1ncccc1-c1ncc2[nH]c(=O)n(C3(c4ccc(-c5nc(C(F)(F)F)cn5C)cc4)CC3)c2n1` [Compound I-51, 2-(2-isopropylpyridin-3-yl)-9-(1-(4-(1-methyl-4-(trifluoromethyl)-1H-imidazol-2-yl)phenyl)cyclopropyl)-7,9-dihydro-8H-purin-8-one], the half-maximal inhibitory concentration (IC50) was under 50 nM.

The molecule `CC(C)c1ccccc1-c1ncc2c(n1)n(Cc1ccc(-c3cn(C(C)C)cn3)cc1)c(=O)n2C` [Compound I-277, 9-(4-(1-isopropyl-1H-imidazol-4-yl)benzyl)-2-(2-isopropylphenyl)-7-methyl-7,9-dihydro-8H-purin-8-one] returned an IC50 of under 50 nM.

Consider `CC(=O)N1CCC(c2ccn(-c3ccc(Cn4c(=O)[nH]c5cnc(-c6ccccc6C(C)C)nc54)cc3)n2)C1` (stereo not drawn) [Compound I-467, 9-(4-(3-(1-acetylpyrrolidin-3-yl)-1H-pyrazol-1-yl)benzyl)-2-(2-isopropylphenyl)-7,9-dihydro-8H-purin-8-one], for which the IC50 was in the range of 50 to 200 nM.

Molecule `Cc1cc(C#N)nn1-c1ccc(Cn2c(=O)[nH]c3cnc(-c4ccccc4C(C)C)nc32)cc1` [Compound I-207, 1-(4-((2-(2-isopropylphenyl)-8-oxo-7,8-dihydro-9H-purin-9-yl)methyl)phenyl)-5-methyl-1H-pyrazole-3-carbonitrile] displayed a half-inhibitory concentration (IC50) of under 50 nM.

Consider `CC(=O)N1CCC(c2ccn(-c3ccc(Cn4c(=O)[nH]c5cnc(-c6c(F)cccc6C(C)C)nc54)cc3)n2)CC1` [Compound I-474, 9-(4-(3-(1-acetylpiperidin-4-yl)-1H-pyrazol-1-yl)benzyl)-2-(2-fluoro-6-isopropylphenyl)-7,9-dihydro-8H-purin-8-one], for which the IC50 is under 50 nM.

Turning to `Cc1cc(C(=O)Nc2ccc(Cn3c(=O)n(C)c4cnc(-c5ccccc5C(C)C)nc43)cc2)n(C)n1` [Compound I-469, N-(4-((2-(2-isopropylphenyl)-7-methyl-8-oxo-7,8-dihydro-9H-purin-9-yl)methyl)phenyl)-1,3-dimethyl-1H-pyrazole-5-carboxamide], the 50% inhibitory concentration (IC50) fell in the range of 200 to 2000 nM.

The molecule `CCC(=O)c1ccccc1-c1ncc2[nH]c(=O)n(Cc3ccc(-c4nc(C(F)(F)F)cn4C)cc3)c2n1` [Compound I-527, 9-(4-(1-methyl-4-(trifluoromethyl)-1H-imidazol-2-yl)benzyl)-2-(2-propionylphenyl)-7,9-dihydro-8H-purin-8-one] gave a 50% inhibitory concentration (IC50) of 200 to 2000 nM.

As for `COc1ccc(-c2ncc3[nH]c(=O)n(Cc4ccc(-c5nc(C(F)(F)F)cn5C)cc4)c3n2)c(C)n1` [Compound I-73, 2-(6-methoxy-2-methylpyridin-3-yl)-9-(4-(1-methyl-4-(trifluoromethyl)-1H-imidazol-2-yl)benzyl)-7,9-dihydro-8H-purin-8-one], the half-maximal inhibitory concentration (IC50) was under 50 nM.

In the case of `CC(C)c1ccccc1-c1ncc2[nH]c(=O)n(CC3CCN(c4cccnc4)CC3)c2n1` [Compound I-143, 2-(2-isopropylphenyl)-9-((1-(pyridin-3-yl)piperidin-4-yl)methyl)-7,9-dihydro-8H-purin-8-one], the 50% inhibitory concentration (IC50) lay within 200 to 2000 nM.

`CC(=O)N1CCCC(c2ccn(-c3ccc(Cn4c(=O)[nH]c5cnc(-c6ccccc6C(C)C)nc54)cc3)n2)C1` (stereo not drawn) [Compound I-468, 9-(4-(3-(1-acetylpiperidin-3-yl)-1H-pyrazol-1-yl)benzyl)-2-(2-isopropylphenyl)-7,9-dihydro-8H-purin-8-one] showed an IC50 of under 50 nM.

Molecule `CC(=O)Nc1cccc(Cn2c(=O)[nH]c3cnc(-c4ccccc4C(C)C)nc32)c1` [Compound I-217, N-(3-((2-(2-isopropylphenyl)-8-oxo-7,8-dihydro-9H-purin-9-yl)methyl)phenyl)acetamide] came in with a concentration for half-maximal inhibition (IC50) of 200 to 2000 nM.

Regarding `Cc1cc(C)n([C@H]2CC[C@@H](Cn3c(=O)n(C)c4cnc(-c5ccccc5C(C)C)nc43)CC2)n1` [Compound I-111, 9-(((1s,4s)-4-(3,5-dimethyl-1H-pyrazol-1-yl)cyclohexyl)methyl)-2-(2-isopropylphenyl)-7-methyl-7,9-dihydro-8H-purin-8-one], the 50% inhibitory concentration (IC50) lay in the range of 50 to 200 nM.

With `CC(C)c1ncccc1-c1ncc2[nH]c(=O)n(Cc3ccc(-n4ccc(C5CCN(C)CC5)n4)cc3)c2n1` [Compound I-442, 2-(2-isopropylpyridin-3-yl)-9-(4-(3-(1-methylpiperidin-4-yl)-1H-pyrazol-1-yl)benzyl)-7,9-dihydro-8H-purin-8-one], the IC50 is over 2000 nM.

Consider `COCC(C)Nc1ncccc1-c1ncc2[nH]c(=O)n(Cc3ccc(-c4nc(C(F)(F)F)cn4C)cc3)c2n1` (stereo not drawn) [Compound I-317, 2-(2-((1-methoxypropan-2-yl)amino)pyridin-3-yl)-9-(4-(1-methyl-4-(trifluoromethyl)-1H-imidazol-2-yl)benzyl)-7,9-dihydro-8H-purin-8-one], for which the IC50 is 50 to 200 nM.

Molecule `CC(C)c1ccccc1-c1ncc2[nH]c(=O)n([C@@H](C)c3ccc(-n4cccn4)cc3)c2n1` [Compound I-157, (S)-9-(1-(4-(1H-pyrazol-1-yl)phenyl)ethyl)-2-(2-isopropylphenyl)-7,9-dihydro-8H-purin-8-one] displayed an IC50 of 50 to 200 nM.

For the molecule `Cc1cc(C)n([C@H]2CC[C@H](Cn3c(=O)n(C)c4cnc(-c5ccccc5C(C)C)nc43)CC2)n1` [Compound I-112, 9-(((1r,4r)-4-(3,5-dimethyl-1H-pyrazol-1-yl)cyclohexyl)methyl)-2-(2-isopropylphenyl)-7-methyl-7,9-dihydro-8H-purin-8-one], the IC50 was over 2000 nM.

In turn, `CN(C)C(=O)CNc1ncccc1-c1ncc2[nH]c(=O)n(Cc3ccc(-c4nc(C(F)(F)F)cn4C)cc3)c2n1` [Compound I-318, N,N-dimethyl-2-((3-(9-(4-(1-methyl-4-(trifluoromethyl)-1H-imidazol-2-yl)benzyl)-8-oxo-8,9-dihydro-7H-purin-2-yl)pyridin-2-yl)amino)acetamide] displayed a half-inhibitory concentration (IC50) of 200 to 2000 nM.

In the case of `CC(C)COc1ncccc1-c1ncc2[nH]c(=O)n(Cc3ccc(-c4nc(C(F)(F)F)cn4C)cc3)c2n1` [Compound I-422, 2-(2-isobutoxypyridin-3-yl)-9-(4-(1-methyl-4-(trifluoromethyl)-1H-imidazol-2-yl)benzyl)-7,9-dihydro-8H-purin-8-one], the concentration for half-maximal inhibition (IC50) was under 50 nM.
